From patent publication US20250205344A1, “2,4-DIOXOTETRAHYDROPYRIMIDINYL DERATIVES AS DEGRONS IN PROTACS” (GLAXOSMITHKLINE INTELLECTUAL PROPERTY DEVELOPMENT LIMITED, priority 2022, published 2025)
Structures can show the parent of a compound that is named as a salt.

Molecular target: T1, Androgen Receptor (Homo sapiens, UniProt P10275, T878A)
T1 construct: the AR gene was modified, using CRISPR/Cas9 editing, so the expressed AR protein included an 11 amino acid HiBiT tag; endogenous in cells; host or cells: clonal LnCaP-derived line, AR gene edited by CRISPR/Cas9
T1 sequence (P10275 whole entry T878A): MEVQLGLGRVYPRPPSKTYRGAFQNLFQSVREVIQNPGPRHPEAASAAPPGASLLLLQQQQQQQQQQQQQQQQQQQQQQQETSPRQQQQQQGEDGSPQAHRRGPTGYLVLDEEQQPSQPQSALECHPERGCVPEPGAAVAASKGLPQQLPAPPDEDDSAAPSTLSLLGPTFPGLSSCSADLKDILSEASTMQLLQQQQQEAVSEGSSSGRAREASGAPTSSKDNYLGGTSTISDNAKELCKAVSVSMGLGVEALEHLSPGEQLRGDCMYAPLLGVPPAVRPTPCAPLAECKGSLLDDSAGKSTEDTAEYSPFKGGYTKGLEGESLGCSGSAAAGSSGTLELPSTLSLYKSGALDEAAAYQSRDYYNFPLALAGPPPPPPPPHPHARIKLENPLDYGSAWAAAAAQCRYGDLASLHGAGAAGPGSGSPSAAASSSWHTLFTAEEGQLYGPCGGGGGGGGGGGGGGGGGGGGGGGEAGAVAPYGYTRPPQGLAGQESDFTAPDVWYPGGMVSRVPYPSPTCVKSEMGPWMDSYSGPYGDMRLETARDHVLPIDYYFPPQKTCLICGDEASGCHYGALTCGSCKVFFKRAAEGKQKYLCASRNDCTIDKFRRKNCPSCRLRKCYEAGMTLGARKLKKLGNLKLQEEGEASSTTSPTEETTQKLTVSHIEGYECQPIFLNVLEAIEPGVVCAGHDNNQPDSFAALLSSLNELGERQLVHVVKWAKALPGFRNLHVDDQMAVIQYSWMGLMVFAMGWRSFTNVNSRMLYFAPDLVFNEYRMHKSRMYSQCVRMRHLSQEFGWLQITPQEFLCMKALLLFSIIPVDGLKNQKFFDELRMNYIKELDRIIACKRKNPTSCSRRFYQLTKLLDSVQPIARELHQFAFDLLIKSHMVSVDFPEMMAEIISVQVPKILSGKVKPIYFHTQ
T1 sequence (Q96SW2 whole entry partner): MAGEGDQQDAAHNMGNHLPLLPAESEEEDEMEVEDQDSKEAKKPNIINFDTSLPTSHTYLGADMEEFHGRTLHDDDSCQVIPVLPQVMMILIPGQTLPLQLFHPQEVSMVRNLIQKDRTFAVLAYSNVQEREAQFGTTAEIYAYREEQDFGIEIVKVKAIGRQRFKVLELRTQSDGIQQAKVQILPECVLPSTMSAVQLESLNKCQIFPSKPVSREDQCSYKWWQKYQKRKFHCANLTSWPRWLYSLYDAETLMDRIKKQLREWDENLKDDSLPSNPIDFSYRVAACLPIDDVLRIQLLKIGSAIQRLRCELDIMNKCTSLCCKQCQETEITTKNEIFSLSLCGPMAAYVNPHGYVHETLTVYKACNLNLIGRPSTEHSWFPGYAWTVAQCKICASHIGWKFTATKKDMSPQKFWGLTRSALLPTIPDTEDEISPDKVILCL
T1 sequence (Q16531 whole entry partner): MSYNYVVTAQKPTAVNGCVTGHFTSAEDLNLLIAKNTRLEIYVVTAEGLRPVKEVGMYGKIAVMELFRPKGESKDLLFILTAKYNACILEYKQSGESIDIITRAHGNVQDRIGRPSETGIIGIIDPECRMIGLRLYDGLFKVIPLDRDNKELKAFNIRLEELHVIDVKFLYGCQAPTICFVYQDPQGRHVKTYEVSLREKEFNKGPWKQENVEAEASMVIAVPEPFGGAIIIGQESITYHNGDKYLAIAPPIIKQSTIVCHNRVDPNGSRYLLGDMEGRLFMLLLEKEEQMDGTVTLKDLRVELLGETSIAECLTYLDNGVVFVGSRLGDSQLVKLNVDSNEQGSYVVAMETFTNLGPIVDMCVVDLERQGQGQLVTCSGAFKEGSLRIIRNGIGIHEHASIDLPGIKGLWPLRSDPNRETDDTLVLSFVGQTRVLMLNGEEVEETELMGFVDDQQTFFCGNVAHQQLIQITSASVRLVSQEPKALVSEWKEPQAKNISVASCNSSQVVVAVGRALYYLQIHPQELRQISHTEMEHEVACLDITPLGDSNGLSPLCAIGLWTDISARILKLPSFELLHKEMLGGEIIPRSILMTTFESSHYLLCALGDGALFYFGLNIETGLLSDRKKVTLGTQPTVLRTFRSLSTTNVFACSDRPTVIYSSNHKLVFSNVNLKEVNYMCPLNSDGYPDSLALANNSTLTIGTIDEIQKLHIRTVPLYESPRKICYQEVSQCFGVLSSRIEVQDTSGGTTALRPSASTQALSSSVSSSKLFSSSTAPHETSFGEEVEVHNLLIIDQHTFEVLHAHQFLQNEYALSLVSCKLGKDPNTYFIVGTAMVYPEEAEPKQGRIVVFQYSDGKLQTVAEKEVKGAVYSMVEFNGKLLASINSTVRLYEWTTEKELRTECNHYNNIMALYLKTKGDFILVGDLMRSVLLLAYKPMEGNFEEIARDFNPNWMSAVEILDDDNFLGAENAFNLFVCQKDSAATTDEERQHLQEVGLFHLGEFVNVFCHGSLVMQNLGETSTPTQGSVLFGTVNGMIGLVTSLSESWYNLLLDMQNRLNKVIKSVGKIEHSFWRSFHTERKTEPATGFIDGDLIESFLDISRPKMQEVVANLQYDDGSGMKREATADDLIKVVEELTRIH
Test: Androgen Receptor Degradation Assay (Nano-Glo HiBiT)
Type: cell-based
Settings: LNCaP, 18 h, HiBiT-tagged AR in human LnCaP cells, read-out: mean asymptote max
Outline: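 LnCaP cells with CRISPR-knocked-in N-terminal HiBiT-tagged AR (10,000/well) treated 18 h at 37 °C with PROTACs over 11 threefold concentrations; lytic HiBiT luminescence normalised to DMSO (0%) and cell-free (100%) controls. Relative DC50 = 4-parameter fit inflection; absolute DC50 = 50% degradation interpolation; Dmax = maximum observed degradation.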

Dmax [%] | Structure (SMILES)
≥ 50 | CC1CC(CN2CCC(n3ncc4c(N5CCC(=O)NC5=O)cccc43)CC2)CCN1c1ccc(C(=O)N[C@H]2CC[C@H](Oc3ccc(C#N)c(Cl)c3)CC2)nn1 (some centres unmarked) [EAR229]
≥ 50 | N#Cc1ccc(O[C@H]2CC[C@H](NC(=O)c3ccc(O[C@H]4CCN(C(=O)CN5CCC(n6ccc7c(N8CCC(=O)NC8=O)cccc76)CC5)C4)nn3)CC2)cc1Cl [EAR188, N-((1r,4S)-4-(3-Chloro-4-cyanophenoxy)cyclohexyl)-6-(((S)-1-(2-(4-(4-(2,4-dioxotetrahydropyrimidin-1(2H)-yl)-1H-indol-1-yl)piperidin-1-yl)acetyl)pyrrolidin-3-yl)oxy)pyridazine-3-carboxamide]
≥ 50 | N#Cc1ccc(O[C@H]2CC[C@H](NC(=O)c3ccc(N4CC5(CCC5CN5CCC(n6ncc7c(N8CCC(=O)NC8=O)cccc76)CC5)C4)nn3)CC2)cc1Cl (some centres unmarked) [EAR236, N-((1r,4r)-4-(3-chloro-4-cyanophenoxy)cyclohexyl)-6-(5-((4-(4-(2,4-dioxotetrahydropyrimidin-1(2H)-yl)-1H-indazol-1-yl)piperidin-1-yl)methyl)-2-azaspiro[3.3]heptan-2-yl)pyridazine-3-carboxamide]
≥ 50 | CC1(CN2CCC(n3ccc4c(N5CCC(=O)NC5=O)cccc43)CC2)CCN(c2ccc(C(=O)N[C@H]3CC[C@H](Oc4ccc(C#N)c(Cl)c4)CC3)nn2)CC1 [EAR213, N-((1r,4r)-4-(3-Chloro-4-cyanophenoxy)cyclohexyl)-6-(4-((4-(4-(2,4-dioxotetrahydropyrimidin-1(2H)-yl)-1H-indol-1-yl)piperidin-1-yl)methyl)-4-methylpiperidin-1-yl)pyridazine-3-carboxamide]
≥ 50 | N#Cc1ccc(O[C@H]2CC[C@H](NC(=O)c3cnc(N4CCC(CN5CCC(n6ccc7c(N8CCC(=O)NC8=O)nccc76)CC5)CC4)nc3)CC2)cc1Cl [EAR211, N-((1r,4r)-4-(3-chloro-4-cyanophenoxy)cyclohexyl)-2-(4-((4-(4-(2,4-dioxotetrahydropyrimidin-1(2H)-yl)-1H-pyrrolo[3,2-c]pyridin-1-yl)piperidin-1-yl)methyl)piperidin-1-yl)pyrimidine-5-carboxamide hydrochloride]
≥ 50 | N#Cc1ccc(O[C@H]2CC[C@H](NC(=O)c3cnc(N4CCC(CN5CCC(n6ncc7c(N8CCC(=O)NC8=O)c(F)ccc76)CC5)CC4)cn3)CC2)cc1Cl [EAR190, N-((1r,4r)-4-(3-Chloro-4-cyanophenoxy)cyclohexyl)-5-(4-((4-(4-(2,4-dioxotetrahydropyrimidin-1(2H)-yl)-5-fluoro-1H-indazol-1-yl)piperidin-1-yl)methyl)piperidin-1-yl)pyrazine-2-carboxamide hydrochloride]
≥ 50 | N#Cc1ccc(O[C@H]2CC[C@H](NC(=O)c3cnc(N4CCC(CN5CCC(n6ncc7c(N8CCC(=O)NC8=O)nccc76)CC5)CC4)cn3)CC2)cc1Cl [EAR203, N-((1r,4r)-4-(3-Chloro-4-cyanophenoxy)cyclohexyl)-5-(4-((4-(4-(2,4-dioxotetrahydropyrimidin-1(2H)-yl)-1H-pyrazolo[4,3-c]pyridin-1-yl)piperidin-1-yl)methyl)piperidin-1-yl)pyrazine-2-carboxamide hydrochloride]
≥ 50 | CC1(C)CCN(c2ccc(C(=O)N[C@H]3CC[C@H](Oc4ccc(C#N)c(Cl)c4)CC3)nn2)CC1CN1CCC(n2ncc3c(N4CCC(=O)NC4=O)cccc32)CC1 (some centres unmarked) [EAR222, N-((1r,4r)-4-(3-chloro-4-cyanophenoxy)cyclohexyl)-6-(3-((4-(4-(2,4-dioxotetrahydropyrimidin-1(2H)-yl)-1H-indazol-1-yl)piperidin-1-yl)methyl)-4,4-dimethylpiperidin-1-yl)pyridazine-3-carboxamide]

Continued, compound first:

Structure (SMILES) | Dmax [%]
CC1(C)C(=O)N(c2ccc(C#N)c(C(F)(F)F)c2)C(=S)N1c1ccc(N2CCC(CN3CCC(n4ncc5c(N6CCC(=O)NC6=O)cncc54)CC3)CC2)cc1 [EAR98, 4-(3-(4-(4-((4-(4-(2,4-Dioxotetrahydropyrimidin-1(2H)-yl)-1H-pyrazolo[3,4-c]pyridin-1-yl)piperidin-1-yl)methyl)piperidin-1-yl)phenyl)-4,4-dimethyl-5-oxo-2-thioxoimidazolidin-1-yl)-2-(trifluoromethyl)benzonitrile] | ≥ 50
N#Cc1ccc(O[C@H]2CC[C@H](NC(=O)c3ccc(N4CCC(CN5CCC(n6ccc7c(N8CCC(=O)NC8=O)ncnc76)CC5)CC4)nn3)CC2)cc1Cl [EAR119, N-((1r,4r)-4-(3-Chloro-4-cyanophenoxy)cyclohexyl)-6-(4-((4-(4-(2,4-dioxotetrahydropyrimidin-1(2H)-yl)-7H-pyrrolo[2,3-d]pyrimidin-7-yl)piperidin-1-yl)methyl)piperidin-1-yl)pyridazine-3-carboxamide] | ≥ 50
CC(C)n1ccc2c(N3CCC(=O)NC3=O)cc(C(=O)N3CCC4(CCCN(CCCCCc5ccc(C(=O)N[C@H]6CC[C@H](Oc7ccc(C#N)c(Cl)c7)CC6)cc5)C4)CC3)cc21 [EAR83, N-((1r,4r)-4-(3-Chloro-4-cyanophenoxy)cyclohexyl)-4-(5-(9-(4-(2,4-dioxotetrahydropyrimidin-1(2H)-yl)-1-isopropyl-1H-indole-6-carbonyl)-2,9-diazaspiro[5.5]undecan-2-yl)pentyl)benzamide] | ≥ 50
N#Cc1ccc(O[C@H]2CC[C@H](NC(=O)c3ccc(N4CCC(CN5CCC(n6ccc7c(N8CCC(=O)NC8=O)cccc76)CC5)CC4)nn3)CC2)cc1Cl [EAR23, N-((1r,4r)-4-(3-Chloro-4-cyanophenoxy)cyclohexyl)-6-(4-((4-(4-(2,4-dioxotetrahydropyrimidin-1(2H)-yl)-1H-indol-1-yl)piperidin-1-yl)methyl)piperidin-1-yl)pyridazine-3-carboxamide] | ≥ 50
CC(C)n1ccc2c(N3CCC(=O)NC3=O)cc(C(=O)N(C)CC3CCN(CC4CCN(c5ccc(N6C(=S)N(c7ccc(C#N)c(C(F)(F)F)c7)C(=O)C6(C)C)cc5)CC4)CC3)cc21 [EAR89, N-((1-((1-(4-(3-(4-Cyano-3-(trifluoromethyl)phenyl)-5,5-dimethyl-4-oxo-2-thioxoimidazolidin-1-yl)phenyl)piperidin-4-yl)methyl)piperidin-4-yl)methyl)-4-(2,4-dioxotetrahydropyrimidin-1(2H)-yl)-1-isopropyl-N-methyl-1H-indole-6-carboxamide] | ≥ 50
N#Cc1ccc(O[C@H]2CC[C@H](NC(=O)c3ccc(N4CCC(CN5CCC(F)(Cn6ccc7c(N8CCC(=O)NC8=O)cccc76)CC5)CC4)nn3)CC2)cc1Cl [EAR168, N-((1r,4r)-4-(3-Chloro-4-cyanophenoxy)cyclohexyl)-6-(4-((4-((4-(2,4-dioxotetrahydropyrimidin-1(2H)-yl)-1H-indol-1-yl)methyl)-4-fluoropiperidin-1-yl)methyl)piperidin-1-yl)pyridazine-3-carboxamide] | ≥ 50
N#Cc1ccc(O[C@H]2CC[C@H](NC(=O)c3ccc(N4CCC(CN5CCC(n6ccc7c(N8CCC(=O)NC8=O)cncc76)CC5)CC4)nn3)CC2)cc1C(F)(F)F [EAR45, N-((1r,4r)-4-(4-Cyano-3-(trifluoromethyl)phenoxy)cyclohexyl)-6-(4-((4-(4-(2,4-dioxotetrahydropyrimidin-1(2H)-yl)-1H-pyrrolo[2,3-c]pyridin-1-yl)piperidin-1-yl)methyl)piperidin-1-yl)pyridazine-3-carboxamide] | ≥ 50
N#Cc1ccc(O[C@H]2CC[C@H](NC(=O)c3ccc(N4CCC(CN5CCC(n6ccc7c(-n8ccc(=O)[nH]c8=O)cccc76)CC5)CC4)nn3)CC2)cc1Cl [EAR141, N-((1r,4r)-4-(3-Chloro-4-cyanophenoxy)cyclohexyl)-6-(4-((4-(4-(2,4-dioxo-3,4-dihydropyrimidin-1(2H)-yl)-1H-indol-1-yl)piperidin-1-yl)methyl)piperidin-1-yl)pyridazine-3-carboxamide, hydrochloride] | ≥ 50
N#Cc1ccc(O[C@H]2CC[C@H](NC(=O)c3ccc(N4CCC(CN5CCC(n6ccc7c(N8CCC(=O)NC8=O)cccc76)CC5)CC4)nc3)CC2)cc1C(F)(F)F [AR12, N-((1r,4r)-4-(4-Cyano-3-(trifluoromethyl)phenoxy)cyclohexyl)-6-(4-((4-(4-(2,4-dioxotetrahydropyrimidin-1(2H)-yl)-1H-indol-1-yl)piperidin-1-yl)methyl)piperidin-1-yl)nicotinamide] | ≥ 50
CN(c1ccc(C#N)c(Cl)c1)[C@H]1CC[C@H](NC(=O)c2ccc(N3CCC(CN4CCC(n5ccc6c(N7CCC(=O)NC7=O)cccc65)CC4)CC3)nn2)CC1 [EAR157, N-((1r,4r)-4-((3-Chloro-4-cyanophenyl)(methyl)amino)cyclohexyl)-6-(4-((4-(4-(2,4-dioxotetrahydropyrimidin-1(2H)-yl)-1H-indol-1-yl)piperidin-1-yl)methyl)piperidin-1-yl)pyridazine-3-carboxamide] | ≥ 50
N#Cc1ccc(O[C@H]2CC[C@H](NC(=O)c3ccc(C4CCN(CC(=O)N5CCC(n6ncc7c(N8CCC(=O)NC8=O)cccc76)CC5)CC4)nn3)CC2)cc1Cl [EAR167, N-((1r,4r)-4-(3-Chloro-4-cyanophenoxy)cyclohexyl)-6-(1-(2-(4-(4-(2,4-dioxotetrahydropyrimidin-1(2H)-yl)-1H-indazol-1-yl)piperidin-1-yl)-2-oxoethyl)piperidin-4-yl)pyridazine-3-carboxamide] | ≥ 50
C[C@@H]1CN(C(=O)Nc2ccc(OCCCCN3CCC(n4ccc5c(N6CCC(=O)NC6=O)cccc54)CC3)nc2)[C@@H](C)CN1c1ccc(C#N)c(Cl)c1 [EAR121, (2S,5R)-4-(3-chloro-4-cyanophenyl)-N-(6-(4-(4-(4-(2,4-dioxotetrahydropyrimidin-1(2H)-yl)-1H-indol-1-yl)piperidin-1-yl)butoxy)pyridin-3-yl)-2,5-dimethylpiperazine-1-carboxamide] | ≥ 50
